What all share (format): cell-based
Assay [1] addresses mitochondrial complex I (Homo sapiens, UniProt O75251+O75306+P03886). The experiment in a line: Complex I-dependent oxygen consumption (OCR), Seahorse XF-96, HCT116 cells. Here is the method:
(§1) FIG. 2. Effects of HU and Mito-HUs on the oxygen consumption by mitochondrial complexes I and III (A) Dose-dependent effects of HU, Mito10-HU, Mito12-HU, Mito14-HU, Mito16-HU, and Mito20-HU on complex I- and complex III-dependent oxygen consumption were measured in HCT116 cells. HCT116 cells were treated with HU or Mito-HUs as indicated for 24 hr. Mitochondrial complex I activity (left) and complex III activity (right) were monitored by a Seahorse XF-96 analyzer. Either rotenone (complex I inhibitor) or antimycin A (complex III inhibitor) was acutely added and OCR assayed immediately. (B) The mitochondrial complex I (left) and III (right) dependent oxygen consumption (calculated as rotenone or antimycin A inhibitable OCR) are plotted against concentration of HU and Mito-HUs. Dashed lines represent the fitting curves used for determination of the IC50 values. Data shown are the means G SD.
(§2) Mitochondrial oxygen consumption was measured using the Seahorse XF-96 Extracellular Flux Analyzer (Agilent, North Billerica, MA) (Cheng et al., 2013, 2016; Boyle et al., 2018; Weinberg and Chandel, 2015). After cells were treated with HU or Mito-HUs for 24 hr, the OCR-based assessment of mitochondrial complex activities was carried out on acutely permeabilized cells in the presence of different mitochondrial substrates, i.e., pyruvate/malate for complex I and duroquinol for complex III (Cheng et al., 2016, 2019; Salabei et al., 2014; Wheaton et al., 2014). Rotenone, malonate, and antimycin A (Sigma-Aldrich, St. Louis, MO) were used as specific inhibitors of mitochondrial complexes I, II, and III, respectively. Briefly, cells that were intact after treatments were immediately permeabilized using the Seahorse XF Plasma Membrane Permeabilizer (Agilent). The mitochondrial complex I-induced OCR was assayed in mannitol and sucrose buffer (Salabei et al., 2014) containing 10 mM pyruvate and 1.5 mM malate (substrates for complex I) and 10 mM malonate (which inhibits complex II activities). The mitochondrial complex III-driven OCR was assayed in a mannitol and sucrose buffer containing 0.5 mM duroquinol (substrate for complex III) as well as […] and 10 mM malonate (which inhibit both complex I and II activities). The IC50 values were determined as previously reported (Cheng et al., 2019).

The test system of assay [2] is HCT116 human colon cancer cells. Kind of assay: Cell proliferation (cell confluence), IncuCyte Live-Cell Analysis system. The conditions noted are these: for Cell Confluence (%): when control cells reached ~90% confluence, n = 4; for IC50: Homo sapiens, HCT-116, at ~90% confluence of control. An excerpt:
FIG. 1. Effects of HU and Mito-HUs on proliferation of HCT116 human colon cancer cells (A) Effects of HU and Mito-HUs on the proliferation of HCT116 cells were monitored in the IncuCyte Live-Cell Analysis system. The IncuCyte Analyzer provides real-time updates on cell confluence, based on segmentation of high definition-phase contrast images. Representative cell images were shown as segmentation mask illustrated in brown when control cells reached 90% confluence (vertical solid black line). (B) The IC50 values were determined at the point at which control cells reached ˜90% confluence (vertical solid black line). Relative cell confluence (control is taken as 100%) is plotted against concentration. Dashed lines represent the fitting curves used to determine the IC50 values as indicated. Data shown are the means & SD.
The following cell lines were obtained from the American Type Culture Collection (Manassas, VA), where they were regularly authenticated: HCT116 (ATCC Cat #CRL-247, human colon cancer cells) and MiaPaCa-2 (ATCC Cat #CRL-1420, human pancreatic cancer cells). All cells were cultured in a humidified incubator at 37° C. and 5% carbon dioxide. HCT116 cells were maintained in RPMI 1640 medium (Thermo Fisher Scientific, Cat #11875), supplemented with 10% fetal bovine serum. MiaPaCa-2 cells were maintained in Dulbecco's Modified Eagle Medium (Thermo Fisher Scientific, Waltham, MA; Cat #11965) supplemented with 10% fetal bovine serum. All cells were stored in liquid nitrogen and used within 20 passages after thawing.
The IncuCyte Live-Cell Analysis system (Essen Bioscience Inc., Ann Arbor, MI) was used to monitor cell proliferation (Cheng et al., 2013, 2016; Boyle et al., 2018). As shown in previous publications (Cheng et al., 2013, 2016), this imaging system is probe-free and noninvasive, and enables continuous monitoring of cell confluence over several days. The increase in the percentage of cell confluence was used as a surrogate marker of cell proliferation. In a 96-well plate, cells were plated at 1,000 cells per well in triplicates and left to adhere overnight. Cells were then treated with HU and Mito-HUs, and the cell confluency was recorded over several days in the IncuCyte Live-Cell Analysis system.

For assay [3], the target named is T1, mitochondrial complex III (Homo sapiens, UniProt P00156+P47985).
T1 construct: other: mean ± SD; HCT116, 24 hr treatment; Complex III activity (OCR, % of control); other: 0.1 μM, 24 hr, HCT116; n = 4; other: 0.5 μM, 24 hr, HCT116; other: 0.75 μM, 24 hr, HCT116; other: 1 μM, 24 hr, HCT116; Compl
Kind of assay: Complex III-dependent oxygen consumption (OCR), Seahorse XF-96, HCT116 cells. Here is the method: as §1, §2

Where [4] appears, read: mean ± SD, HCT116, read-out: IC50 Cell Proliferation (FIG. 1).

Structures are written as SMILES. Read-outs that look alike come from different tables or passages of the source.

We go through two molecules from patent US20240109925A1, “Enhanced Anti-Proliferative and Antitumor Immune Effects of Mitochondria-Targeted Hydroxyurea” (The Medical College of Wisconsin, Inc., priority 2021, published 2024).

In the case of `NC(=O)NO` [HU, Hydroxyurea], in assay [1] (HCT116, 24 hr), the “effect on complex I-induced oxygen consumption” value was “no apparent effects”. In addition, the remaining activity at 10 µM in assay [1] (HCT-116; 10 μM, 24 hr, HCT116; n = 4; read-out: Complex I activity (OCR, % of control)) was 84.7%; in assay [3] (HCT-116; 10 μM, 24 hr, HCT116; n = 4; read-out: Complex III activity (OCR, % of control)), 94.1%. The remaining activity at 30 µM in assay [1] (HCT-116; 30 μM, 24 hr, HCT116; n = 4; read-out: Complex I activity (OCR, % of control)) amounted to 77%; in assay [3] (HCT-116; 30 μM, 24 hr, HCT116; n = 4; read-out: Complex III activity (OCR, % of control)) it was 81.2%. The remaining activity at 100 µM was 87.9% in assay [1] (HCT-116; 100 μM, 24 hr, HCT116; n = 4; read-out: Complex I activity (OCR, % of control)) and 94.6% in assay [3] (HCT-116; 100 μM, 24 hr, HCT116; n = 4; read-out: Complex III activity (OCR, % of control)). The remaining activity at 150 µM in assay [1] (HCT-116; 150 μM, 24 hr, HCT116; n = 4; read-out: Complex I activity (OCR, % of control)) is 86.1%; in assay [3] (HCT-116; 150 μM, 24 hr, HCT116; n = 4; read-out: Complex III activity (OCR, % of control)), 92.2%. The remaining activity at 200 µM in assay [1] (HCT-116; 200 μM, 24 hr, HCT116; n = 4; read-out: Complex I activity (OCR, % of control)) came out at 86.5%; in assay [3] (HCT-116; 200 μM, 24 hr, HCT116; n = 4; read-out: Complex III activity (OCR, % of control)), 82.7%. Further, the remaining activity at 250 µM in assay [1] (HCT-116; 250 μM, 24 hr, HCT116; n = 4; read-out: Complex I activity (OCR, % of control)) turned out to be 91.3%; in assay [3] (HCT-116; 250 μM, 24 hr, HCT116; n = 4; read-out: Complex III activity (OCR, % of control)), 89.1%. Further, the remaining activity at 300 µM in assay [1] (HCT-116; 300 μM, 24 hr, HCT116; n = 4; read-out: Complex I activity (OCR, % of control)) is 85.7%; in assay [3] (HCT-116; 300 μM, 24 hr, HCT116; n = 4; read-out: Complex III activity (OCR, % of control)), 88.7%. For the same molecule, the remaining activity at 400 µM was determined as 70.5% in assay [1] (HCT-116; 400 μM, 24 hr, HCT116; n = 4; read-out: Complex I activity (OCR, % of control)) and 86.8% in assay [3] (HCT-116; 400 μM, 24 hr, HCT116; n = 4; read-out: Complex III activity (OCR, % of control)). Also, the remaining activity at 500 µM in assay [1] (HCT-116; 500 μM, 24 hr, HCT116; n = 4; read-out: Complex I activity (OCR, % of control)) is 82.1%; in assay [3] (HCT-116; 500 μM, 24 hr, HCT116; n = 4; read-out: Complex III activity (OCR, % of control)), 88.9%. The remaining activity at 1000 µM in assay [1] (HCT-116; 1000 μM, 24 hr, HCT116; n = 4; read-out: Complex I activity (OCR, % of control)) turned out to be 80.2%; in assay [3] (HCT-116; 1000 μM, 24 hr, HCT116; n = 4; read-out: Complex III activity (OCR, % of control)) it was 93.1%. The remaining activity at 3000 µM in assay [1] (HCT-116; 3000 μM, 24 hr, HCT116; n = 4; read-out: Complex I activity (OCR, % of control)) amounted to 83.1%; in assay [3] (HCT-116; 3000 μM, 24 hr, HCT116; n = 4; read-out: Complex III activity (OCR, % of control)) it was 94.4%. Further, the IC50 in assay [1] (read-out: IC50 Complex I (FIG. 2); mean ± SD; HCT116, 24 hr treatment) is more than 3000 µM; in assay [2] (setting [4]), 180 ± 6.7 µM; in assay [3] (read-out: IC50 Complex III (FIG. 2); mean ± SD; HCT116, 24 hr treatment), more than 3000 µM. The “Cell Confluence (%)” value stood at 89.91% in assay [2] (10 μM); 91.61% in assay [2] (30 μM); 66.96% in assay [2] (100 μM); 48.62% in assay [2] (150 μM); 31.90% in assay [2] (200 μM); 22.99% in assay [2] (250 μM). Besides, the “Cell Confluence (%)” value in assay [2] (300 μM) came out at 17.30%; in assay [2] (400 μM) it was 11.42%; in assay [2] (500 μM) it was 8.79%; in assay [2] (1000 μM), 5.40%; in assay [2] (3000 μM), 3.43%. Also, the “effect on complex III-induced oxygen consumption” value in assay [3] (HCT116, 24 hr) is listed as “no apparent effects”.
In the case of `NC(=O)NOCCCCCCCCCCCC[P+](c1ccccc1)(c1ccccc1)c1ccccc1.O=C([O-])C(F)(F)F` [Mito12-HU, 12-[(carbamoylamino)oxy]-dodecyltriphenylphosphonium trifluoroacetate], in assay [1] (HCT116, 24 hr), the “effect on complex I-induced oxygen consumption” value is “potently inhibited”. The IC50 was 1.6 ± 0.16 µM in assay [1] (mean ± SD; HCT116, 24 hr treatment; read-out: IC50 Complex I (FIG. 2)); 1.8 µM in assay [2] (HCT116, read-out: IC50 proliferation of HCT116 cells); 1.8 ± 0.05 µM in assay [2] (setting [4]); 3.1 ± 0.18 µM in assay [3] (mean ± SD; HCT116, 24 hr treatment; read-out: IC50 Complex III (FIG. 2)). The “inhibition of proliferation of HCT116 cells” value in assay [2] (HCT116) is listed as “dose-dependently inhibited proliferation”. The “effect on complex III-induced oxygen consumption” value in assay [3] (HCT116, 24 hr) is recorded as “potently inhibited”.
